These results are taken from US8252846B2, “Strategies for delivery of active agents using micelles and particles” (priority 2005, dated 2012).

The nature of data set [1]: Hydrolysis of polyketal copolymers in buffered water (1H NMR). It is filed as physicochemical. Conditions: buffer. The protocol:
The molecular weight of the polyketal copolymers was determined by gel permeation chromatography (GPC) using a Shimadzu system (Kyoto, Japan) equipped with a UV detector. THF was used as the mobile phase at a flow rate of 1 mL/min. Polystyrene standards (Peak Mw=1060, 2970, and 10680) from Polymer Laboratories (Amherst, Mass.) were used to establish a molecular weight calibration curve. The hydrolysis of the polyketal copolymers was measured in buffered water at pH values of 1.0 (0.1M HCL), 4.5 (100 mM AcOH) and 7.4 (100 mM) at 37° C. Briefly, 20 mg of the polymer samples were placed in a 5 ml vial, 1 mL of buffer solution was added to each vial, and mixed with a magnetic stir bar. At specific time points, 1 mL of CDCl3 was added to each vial and shaken vigorously, the CDCl3 phase was isolated and analyzed by ^1H NMR, to determine the percent hydrolysis the of ketal linkages in polyketal copolymer.

For data set [2] the following is noted: cited from earlier work.
Another data set relates to serum nucleases. Briefly: Protection of ISS-DNA from serum nucleases (gel electrophoresis). It is filed as in vitro ADME. Conditions: 10% serum, 12 hours. The protocol:
The stimuli responsive release of peptides from the PCMs due to the presence of GSH was investigated to determine if the PCMs will release peptide antigens after phagocytosis. The PCMs were incubated with different concentrations of GSH, for 24 hours in 50 mM pH 7.4 PBS buffer, and then analyzed by HPLC to determine the release of peptides. […] Incubation of the PCMs with 10 mM GSH (intracellular levels) induces the release of 71% of peptide, whereas incubation of the PCMs with just buffer causes the release of only 10% of peptides. B. GSH sensitive DNA release. The ability of the PCMs to protect encapsulated ISS-DNA from degradation by serum nucleases was investigated. PCMs were synthesized (as described above) and incubated with 10% serum for 12 hours, these PCMs were then examined by gel electrophoresis to determine the stability of the encapsulated ISS-DNA. As a control, ISS-DNA by itself was incubated with serum. […] C. […] A key advantage of the PCM strategy is that it generates a crosslinked delivery system. This crosslinking should stabilize the PCMs in vivo. The stability of the PCMs to decomposition was investigated by mixing the negatively charged polymer, poly(vinyl sulfate) (PVS) with the PCMs, this mixture was then analyzed by gel electrophoresis to determine the quantity of ISS-DNA displaced by the PVS. […]

Regarding “poly(cyclohexane-1,4-diyl acetone dimethylene ketal-co-1,6-hexane-acetone dimethylene ketal) [PK5]”, in data set [1], the “Half life at pH 4.5” value came to 4.4 days. In addition, the “Estimated half life at pH 7.4” value in data set [1] (pH 7.4) is listed as 53 days.

`OCCCCCCCCO` [1,8-octanediol]: in data set [2], the “Log P of diol” value was 1.75. For “poly(cyclohexane-1,4-diyl acetone dimethylene ketal-co-1,5-pentane-acetone dimethylene ketal [PK3]”, in data set [1] (pH 7.4), the “Estimated half life at pH 7.4” value was 39 days and the “Hydrolysis half life at pH 7.4 (in words)” value is reported as “several weeks”.

With `OCC1CCC(CO)CC1` (stereo not drawn) [1,4-cyclohexanedimethanol], in data set [2], the “Log P of diol” value is on record as 1.46. For the compound 5-TCCATGACGTTCCTGACGTT-3 [ISS-DNA], the “Stability of ISS-DNA to serum nucleases” value in the data set with serum nucleases is “completely hydrolyzed”. Consider “poly(cyclohexane-1,4-diyl acetone dimethylene ketal-co-1,8-octane-acetone dimethylene ketal) [PK6]”, for which, in data set [1], the “Half life at pH 4.5” value was determined as 18.6 days. Besides, the “Estimated half life at pH 7.4” value in data set [1] (pH 7.4) is reported as 360 days.
